Values joined by “and” are separate entries in the source; they are usually repeats but may differ in a detail not shown here. Identical values can stand only once.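 Each compound was tested at five concentrations against cells in 96-well plates for 48 hours. The concentration for 50% growth inhibition is given as GI50. The concentration for full growth arrest is given as TGI.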 Bounds are passed on as bounds.

This passage reports GI50 and TGI results from PubChem BioAssay (NCI).

Among the test systems are ACHN renal; HCC-2998 colon; HOP-62 NSCLC; HOP-92 NSCLC; M14 melanoma; MOLT-4 leukemia; OVCAR-4 ovarian; SK-MEL-28 melanoma; SK-MEL-5 melanoma; SK-OV-3 ovarian.
Test in all cases: NCI tumour cell line growth inhibition, 48 h

For the compound `C1C[OH+]CC[OH+]CC[OH+]CC[OH+]CC[OH+]CC[OH+]1.[Cl-].[Nb+5]`, the GI50 in the experiment with ACHN renal, in the experiment with HCC-2998 colon, with HOP-62 NSCLC, in the experiment with HOP-92 NSCLC, in the experiment on M14 melanoma and in the experiment on MOLT-4 leukemia was above 100 µM throughout. For the same compound, the GI50 in the experiment with OVCAR-4 ovarian, in the experiment on SK-MEL-28 melanoma, in the experiment on SK-MEL-5 melanoma and with SK-OV-3 ovarian was above 100 µM each time. The TGI with ACHN renal, in the experiment with HCC-2998 colon, in the experiment on HOP-62 NSCLC, with HOP-92 NSCLC, with M14 melanoma and in the experiment on MOLT-4 leukemia was above 100 µM throughout. In addition, the TGI with OVCAR-4 ovarian, in the experiment with SK-MEL-28 melanoma, with SK-MEL-5 melanoma and in the experiment with SK-OV-3 ovarian was above 100 µM in each case.
`COC(=O)Cc1nc2ccccc2o1`: the TGI in the experiment with ACHN renal, with HCC-2998 colon, with HOP-62 NSCLC, in the experiment with HOP-92 NSCLC, in the experiment with M14 melanoma and in the experiment on MOLT-4 leukemia was above 100 µM throughout. In addition, the TGI in the experiment with OVCAR-4 ovarian, with SK-MEL-28 melanoma, with SK-MEL-5 melanoma and in the experiment on SK-OV-3 ovarian was above 100 µM in each case.
`Nc1nc(N)c(-c2ccccc2)c(CCC(=O)Nc2ccc(Cl)cc2)n1`: the TGI in the experiment on ACHN renal, with HCC-2998 colon, in the experiment on HOP-62 NSCLC, with HOP-92 NSCLC, in the experiment on M14 melanoma and with MOLT-4 leukemia was above 100 µM throughout. The TGI with OVCAR-4 ovarian, with SK-MEL-28 melanoma, with SK-MEL-5 melanoma and with SK-OV-3 ovarian was above 100 µM each time.
In the case of `O=C(Nc1cc(-c2cccnc2)nc(NCCCN2CCOCC2)n1)c1cc(Br)cc(C(F)(F)F)c1`, the GI50 is 3.04 µM in the experiment on ACHN renal; 1.77 µM with HCC-2998 colon; 2.71 µM in the experiment with HOP-62 NSCLC; 1.97 µM in the experiment on HOP-92 NSCLC; 1.67 µM in the experiment with M14 melanoma; 3.63 µM in the experiment on MOLT-4 leukemia. Further, the GI50 in the experiment on OVCAR-4 ovarian was 3.26 µM; in the experiment on SK-MEL-28 melanoma, 1.73 µM; with SK-MEL-5 melanoma, 1.64 µM; with SK-OV-3 ovarian, 7.26 µM. Further, the TGI came to 11.3 µM with ACHN renal; 3.49 µM in the experiment with HCC-2998 colon; 9.98 µM in the experiment with HOP-62 NSCLC; 7.62 µM in the experiment with HOP-92 NSCLC; 3.32 µM with M14 melanoma; 13.1 µM with MOLT-4 leukemia. Further, the TGI in the experiment with OVCAR-4 ovarian came out at 14.5 µM; in the experiment on SK-MEL-28 melanoma, 3.48 µM; with SK-MEL-5 melanoma it was 3.02 µM; with SK-OV-3 ovarian it was 19.9 µM.
As for `Nc1c(C(=O)Nc2cccc(Br)c2)sc2nc3c(cc12)C(O)CCC3` (centres undefined), the GI50 in the experiment on ACHN renal is 0.848 µM; in the experiment with HCC-2998 colon it was 1.61 µM; with HOP-62 NSCLC it was 0.575 µM; with HOP-92 NSCLC it was 0.383 µM; in the experiment with M14 melanoma, 0.36 µM; in the experiment on MOLT-4 leukemia it was 0.518 µM. The GI50 is 3.14 µM in the experiment on OVCAR-4 ovarian, 4.43 µM in the experiment on SK-MEL-28 melanoma, 0.455 µM in the experiment with SK-MEL-5 melanoma and 0.57 µM in the experiment with SK-OV-3 ovarian. For the same compound, the TGI was 31.1 µM in the experiment with ACHN renal; 50.2 µM with HCC-2998 colon; 48.3 µM in the experiment on HOP-62 NSCLC; 11.4 µM in the experiment with HOP-92 NSCLC; above 100 µM in the experiment on M14 melanoma; 98 µM in the experiment on MOLT-4 leukemia. The TGI in the experiment with OVCAR-4 ovarian was 66 µM; in the experiment on SK-MEL-28 melanoma it was above 100 µM; in the experiment on SK-MEL-5 melanoma it was above 45.4 µM; in the experiment with SK-OV-3 ovarian, 40.8 µM.
As for `CCOC(=O)Cc1csc(NC(=O)COC(=O)c2ccc(OC)cc2)n1`, the GI50 with ACHN renal was above 100 µM; in the experiment with HCC-2998 colon, above 100 µM; in the experiment on HOP-62 NSCLC, above 78.8 µM; in the experiment with HOP-92 NSCLC it was 7.58 µM; in the experiment with M14 melanoma, above 100 µM; in the experiment with OVCAR-4 ovarian, 98.2 µM. The GI50 in the experiment with SK-MEL-28 melanoma was above 100 µM; in the experiment with SK-MEL-5 melanoma, above 100 µM; in the experiment with SK-OV-3 ovarian it was above 75.4 µM. Besides, the TGI in the experiment on ACHN renal was above 100 µM; in the experiment on HCC-2998 colon it was above 100 µM; in the experiment on HOP-62 NSCLC it was above 100 µM; in the experiment with HOP-92 NSCLC, 24.3 µM; in the experiment on M14 melanoma it was above 100 µM; in the experiment on MOLT-4 leukemia it was above 35.6 µM. Moreover, the TGI in the experiment with OVCAR-4 ovarian, in the experiment with SK-MEL-28 melanoma, in the experiment on SK-MEL-5 melanoma and with SK-OV-3 ovarian was above 100 µM each time.
As for `CCCCCc1c(C)[nH]c(/C=C2\N=C(c3ccc[nH]3)C=C2OCc2ccccc2)c1C`, the GI50 in the experiment with ACHN renal is 0.0514 µM and 0.0324 µM; with HCC-2998 colon, 0.0419 µM and 0.038 µM; with HOP-62 NSCLC it was 0.164 µM and 0.0925 µM; in the experiment on HOP-92 NSCLC, 0.00832 µM and 0.0187 µM; in the experiment with M14 melanoma, 0.0296 µM and 0.0252 µM; with MOLT-4 leukemia, 0.0365 µM and 0.0402 µM. Moreover, the GI50 is 0.0463 µM and 0.0163 µM with OVCAR-4 ovarian; 0.105 µM and 0.0459 µM in the experiment with SK-MEL-28 melanoma; 0.0358 µM and 0.0186 µM in the experiment on SK-MEL-5 melanoma; 0.326 µM and 0.0978 µM in the experiment on SK-OV-3 ovarian. The TGI with ACHN renal was 0.941 µM and 0.75 µM; in the experiment on HCC-2998 colon, 1.7 µM and 1.24 µM; with HOP-62 NSCLC, 1.89 µM and 1.37 µM; with HOP-92 NSCLC it was 0.0562 µM and 0.0647 µM; in the experiment on M14 melanoma it was 0.0823 µM and 0.0748 µM; in the experiment on MOLT-4 leukemia, 1.33 µM and 7.14 µM. Moreover, the TGI is 1.29 µM and 1.24 µM in the experiment on OVCAR-4 ovarian; 1.05 µM and 0.267 µM in the experiment on SK-MEL-28 melanoma; 0.138 µM and 0.0471 µM with SK-MEL-5 melanoma; 2.48 µM and 0.983 µM in the experiment on SK-OV-3 ovarian.
As for `Cc1c(C(=O)O[C@H]2[C@@H]3[C@H](C)CC[C@H]3[C@]3(C)O[C@@]2(C2CCCCC2)C[C@H]3OC(=O)CO)ccc2ccccc12`, the GI50 in the experiment with ACHN renal is 0.0589 µM; in the experiment on HCC-2998 colon, 8.09 µM; in the experiment with HOP-62 NSCLC, 8.48 µM; with HOP-92 NSCLC, 4.19 µM; with M14 melanoma, 7.92 µM; with MOLT-4 leukemia, 7.15 µM. Moreover, the GI50 in the experiment on OVCAR-4 ovarian is 7.6 µM; in the experiment with SK-MEL-28 melanoma, 8.44 µM; in the experiment on SK-MEL-5 melanoma, 7.28 µM; in the experiment with SK-OV-3 ovarian it was 9.19 µM. In addition, the TGI is 0.766 µM with ACHN renal; 15.8 µM in the experiment with HCC-2998 colon; 15.3 µM with HOP-62 NSCLC; 10.4 µM in the experiment with HOP-92 NSCLC; 16.7 µM in the experiment on M14 melanoma; 17.7 µM in the experiment on MOLT-4 leukemia. For the same compound, the TGI stood at 14.3 µM in the experiment with OVCAR-4 ovarian, 15.8 µM with SK-MEL-28 melanoma, 13.8 µM in the experiment on SK-MEL-5 melanoma and 17.1 µM with SK-OV-3 ovarian.
With `CCOC(=O)/N=c1/nc(N(C)C)ss1`, the TGI in the experiment with ACHN renal, with HCC-2998 colon, in the experiment on HOP-62 NSCLC, in the experiment with HOP-92 NSCLC, in the experiment on M14 melanoma and in the experiment on MOLT-4 leukemia was above 100 µM throughout. For the same compound, the TGI in the experiment with OVCAR-4 ovarian, in the experiment with SK-MEL-28 melanoma, with SK-MEL-5 melanoma and in the experiment on SK-OV-3 ovarian was above 100 µM throughout.
